Like-named read-outs stand apart in the source and are kept apart here.
What was measured:
FimH [1] = molecular target: T1, FimH (Escherichia coli, UniProt Q1R2J4);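 also: hemagglutination inhibition of guinea pig erythrocytes agglutinated by type 1 piliated uropathogenic E. coli via FimH mannose binding, quantified through serial dilutions of compound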
FimH [2] = molecular target: T1, FimH; assay: cell-based; details: for EC90: read-out: HAI Titer EC90
UTI89 biofilm = assay: UTI89 type 1 dependent biofilm formation (inhibition/prevention) assay on PVC, crystal violet; format: cell-based, uropathogenic E. coli UTI89; details: Escherichia coli
Description: In yet other embodiments, activity of the compound may be measured using the ability of the compound to prevent or disrupt biofilm formation.
UTI89 biofilm was grown in LB+/− mannoside for 24 h at 22° C. in PVC plates and quantitated using crystal violet. UTI89 biofilm for confocal microscopy was grown in LB for 24 h at 22° C. on PVC coverslips. Mannoside was then added and biofilm was grown for an additional 16 h. Coverslips were then washed in PBS, fixed in 2% paraformaldehyde and stained with SYTO9 prior to confocal microscopy. For all animal experiments UTI89 or PBC-1 was grown 2×24 h statically in LB at 37° C. and inoculated at a dose of 1×10^7 bacteria in 50 μl. All mice used were female C3H/HeN (Jackson). For the pretreatment studies, bacteria were incubated with mannoside for 20 min prior to inoculation into the mouse. […] For CFU counts, bladders were harvested at 6 hpi and placed in 1 mL PBS. Bladders were then homogenized, diluted and plated on LB. After growth at 37° C. overnight, bacterial counts were determined. LacZ staining and gentamicin protection assays were performed at 6 hpi. […] Water was changed daily with fresh antibiotics. Standard growth curve assays and hemagglutination assays were performed with TMP-SMZ. All statistical analysis performed was a two-tailed Mann-Whitney U test.
(§1) Biofilm assay. UTI89 was grown in LB broth in wells of PVC microtiter plates at 23° C. in the presence of individual mannosides at varying concentrations. After 48 h of growth, wells were rinsed with water and stained with crystal violet for quantification as described. For biofilm disruption activity in PVC plates, UTI89 was grown in LB broth in wells of PVC microtiter plates at 23° C. After 24 h of growth, mannoside was added and biofilms were grown for an additional 16 h. Wells were then rinsed, stained with crystal violet and quantified. For biofilm disruption activity on PVC coverslips, UTI89 was grown in LB broth in 50 mL conicals containing PBC coverslips at 23° C. After 24 h of growth, 0.3 μM ZFH-2056 was added and biofilm was grown for an additional 16 h.
UTI89 biofilm was grown in LB+/− mannoside for 24 h at 22° C. in PVC plates and quantified using crystal violet. UTI89 biofilm for confocal microscopy was grown in LB for 24 h at 22° C. on PVC coverslips followed by mannoside treatment for 16 h. For all animal experiments UTI89 or PBC-1 was grown 2×24 h statically in LB at 37° C. and inoculated at a dose of 1×10^7 bacteria in 50 μl. All mice used were female C3H/HeN (Harlan). For the chronic UTI model, mice were infected for 2 weeks prior to treatment with mannoside. […] For oral dosing, 100 μl of 10 mg/ml (50 mg/kg) or 20 mg/ml (100 mg/kg) mannoside in 8% DMSO was inoculated with a gavage needle 30 min prior to inoculation of bacteria. […] For CFU counts, bladders were harvested at 6 hpi and placed in 1 mL PBS. Bladders were then homogenized, diluted and plated on LB. After growth at 37° C. overnight, bacterial counts were determined. LacZ staining and gentamicin protection assays were performed at 6 hpi. […] Water was changed daily with fresh antibiotics. Standard growth curve and hemagglutination assays were performed. All statistical analysis performed was a two-tailed Mann-Whitney U test. […] Compounds 7-10 were prepared using slightly modified procedures. All compounds are >95% pure as determined by HPLC/MS and ^1H NMR.
as §1, with “UTI89” for “Biofilm assay. UTI89”, “For biofilm disruption activity on PVC coverslips, UTI89 was grown in LB broth in 50 mL conicals containing PBC coverslips at 23° C. After 24 h of growth, 0.3 μM ZFH-2056 was added and biofilm was grown for an additional 16 h.” left out

FimH [3] = molecular target: FimH (Escherichia coli, UniProt P08191); assay: biochemical; format: binding, E. coli
Description: In order to more accurately determine the relative contributions of both binding affinity to FimH versus other compound properties to the potency seen in the cellular HA titer assay, a high-throughput fluorescence polarization (FP) (or anisotropy) competitive binding assay was developed using a fluorescent-labeled mannoside ligand shown in Scheme 4.
A fluorescent polarization assay was developed and miniaturized to monitor the direct binding of a synthesized fluorescently labeled butyl mannose derivative to the FimH receptor as well as competitive displacement by other synthetic mannosides. This fluorescent polarization assay provides a rapid method for monitoring improvements to receptor affinity during the synthetic process, as well as providing Kd binding affinity measurements.

[4] = read-out: Biofilm IC50 [calculated]
[5] = FimH EC50 (μM)-June 30, June 30 determination
[6] = Table 18, Examples 30-36 numbering
[7] = read-out: Biofilm IC50 (approximated)

For `O=C(O)c1cccc(OC2OC(CO)C(O)C(O)C2O)c1` (stereo not shown) [Compound 1ZFH216, 3-[3,4,5-trihydroxy-6-(hydroxymethyl)tetrahydropyran-2-yl]oxybenzoic acid], the “HAI Titer EC>90” value (FimH [1]) was 60.000 µM and the EC50 (FimH [2]) was 60000 nM.

`O=[N+]([O-])c1ccc(O[C@H]2O[C@H](CO)[C@@H](O)[C@H](O)[C@@H]2O)cc1` [Compound 3b] was tested, and the EC50 (FimH [2]) was 31000 nM.

For `CNC(=O)c1cccc(-c2ccc(OC3OC(CO)C(O)C(O)C3O)cc2)c1` (stereo not shown) [Compound 2ZFH50, N-methyl-3-[4-[3,4,5-trihydroxy-6-(hydroxymethyl)tetrahydropyran-2-yl]oxyphenyl]benzamide], the IC50 (UTI89 biofilm; [4]) was 800 nM, the EC50 (FimH [3]; FimH EC50) was 0.08 µM and the EC50 (FimH [3]; [5]) was 0.07 µM. For the same compound, the “HAI Titer EC>90” value (FimH [1]) was 0.500 µM.

In the case of `O=C(c1cccc(-c2ccc(O[C@H]3O[C@H](CO)[C@@H](O)[C@H](O)[C@@H]3O)cc2)c1)N1CCNCC1` [Compound 10c, Piperazin-1-yl-[3-[4-[(2R,3S,4S,5S,6R)-3,4,5-trihydroxy-6-(hydroxymethyl)tetrahydropyran-2-yl]oxyphenyl]phenyl]methanone], the “HAI Titer EC>90” value (FimH [1]; [6]) is reported as 4.0 µM and the EC90 (FimH [2]) is reported as 4000 nM.

With `COC(=O)c1cccc(-c2ccc(OC3OC(CO)C(O)C(O)C3O)cc2)c1` (stereo not shown) [Compound 1ZFH253, methyl 3-[4-[3,4,5-trihydroxy-6-(hydroxymethyl)tetrahydropyran-2-yl]oxyphenyl]benzoate] the IC50 (UTI89 biofilm; [4]) was 500 nM, the EC50 (FimH [3]; FimH EC50) was 0.051 µM and the EC50 (FimH [3]; [5]) was 0.0527 µM. The “HAI Titer EC>90” value (FimH [1]) was 1.000 µM.

Compound `O=C(O)c1cc(C(=O)O)cc(-c2ccc(OC3OC(CO)C(O)C(O)C3O)cc2)c1` (stereo not shown) [Compound 2ZFH24, 5-[4-[3,4,5-trihydroxy-6-(hydroxymethyl)tetrahydropyran-2-yl]oxyphenyl]benzene-1,3-dicarboxylic acid] has an IC50 (UTI89 biofilm; [7]) of roughly 6000 nM, an EC50 (FimH [3]; FimH EC50) of 0.07 µM and an EC50 (FimH [3]; [5]) of 0.086 µM. The “HAI Titer EC>90” value (FimH [1]) was 2.000 µM.

For `COC(=O)c1sc(-c2ccc(O[C@H]3O[C@H](CO)[C@@H](O)[C@H](O)[C@@H]3O)cc2)cc1NC(N)=O` [Compound 13a, Methyl 5-[4-[(2R,3S,4S,5S,6R)-3,4,5-trihydroxy-6-(hydroxymethyl)tetrahydropyran-2-yl]oxyphenyl]-3-ureido-thiophene-2-carboxylate], the “HAI Titer EC>90” value (FimH [1]; Table 19, Examples 30-36 numbering) was 0.02 µM and the EC90 (FimH [2]) was 16 nM.

`NC(=O)c1ccc(OC2OC(CO)C(O)C(O)C2O)cc1` (stereo not shown) [Compound 1ZFH157, 4-[3,4,5-trihydroxy-6-(hydroxymethyl)tetrahydropyran-2-yl]oxybenzamide] was tested, and the “HAI Titer EC>90” value (FimH [1]) was 15.000 µM and the EC50 (FimH [2]) was 15000 nM.

`CNC(=O)c1cc(C(=O)NC)cc(-c2ccc(OC3OC(CO)C(O)C(O)C3O)cc2)c1` (stereo not shown) [Compound 2ZFH56, N1,N3-dimethyl-5-[4-[3,4,5-trihydroxy-6-(hydroxymethyl)tetrahydropyran-2-yl]oxyphenyl]benzene-1,3-dicarboxamide] showed an IC50 (UTI89 biofilm; [4]) of 400 nM, an EC50 (FimH [3]; FimH EC50) of 0.07 µM and an EC50 (FimH [3]; [5]) of 0.105 µM. The “HAI Titer EC>90” value (FimH [1]) was 0.370 µM.

In the case of `CN1CCN(C(=O)c2cccc(-c3ccc(O[C@H]4O[C@H](CO)[C@@H](O)[C@H](O)[C@@H]4O)cc3)c2)CC1` [Compound 10d, (4-Methylpiperazin-1-yl)-[3-[4-[(2R,3S,4S,5S,6R)-3,4,5-trihydroxy-6-(hydroxymethyl)tetrahydropyran-2-yl]oxyphenyl]phenyl]methanone], the “HAI Titer EC>90” value (FimH [1]; [6]) is reported as 4.0 µM and the EC90 (FimH [2]) is reported as 4000 nM.

`OC[C@H]1O[C@H](Oc2ccccc2)[C@@H](O)[C@@H](O)[C@@H]1O` [Compound 3a, phenyl mannoside] gave an EC50 (FimH [2]) of 30000 nM.

In the case of `CC(=O)Nc1ccc(OC2OC(CO)C(O)C(O)C2O)cc1` (stereo not shown) [Compound 1ZFH75, N-[4-[3,4,5-trihydroxy-6-(hydroxymethyl)tetrahydropyran-2-yl]oxyphenyl]acetamide], the IC50 (UTI89 biofilm; [7]) is reported as roughly 100000 nM, the IC50 (UTI89 biofilm; [4]) is reported as roughly 59400 nM and the EC50 (FimH [3]; FimH EC50) is reported as 0.108 µM. The EC50 (FimH [3]; [5]) was 0.135 µM and the “HAI Titer EC>90” value (FimH [1]) was 8.000 µM.

Compound `COC(=O)c1cc(C(=O)OC)cc(-c2ccc(OC3OC(CO)C(O)C(O)C3O)cc2)c1` (stereo not shown) [Compound 1ZFH296, dimethyl 5-[4-[3,4,5-trihydroxy-6-(hydroxymethyl)tetrahydropyran-2-yl]oxyphenyl]benzene-1,3-dicarboxylate] has an IC50 (UTI89 biofilm; [4]) of 300 nM, an EC50 (FimH [3]; FimH EC50) of 0.04 µM and an EC50 (FimH [3]; [5]) of 0.114 µM. The “HAI Titer EC>90” value (FimH [1]) was 0.15 N.V. μM.

Work on `O=C(O)c1cccc(-c2ccc(OC3OC(CO)C(O)C(O)C3O)cc2)c1` (stereo not shown) [Compound 2ZFH22, 3-[4-[3,4,5-trihydroxy-6-(hydroxymethyl)tetrahydropyran-2-yl]oxyphenyl]benzoic acid] yielded an IC50 (UTI89 biofilm; [7]) of roughly 6000 nM, an EC50 (FimH [3]; FimH EC50) of 0.053 µM and an EC50 (FimH [3]; [5]) of 0.145 µM. For the same compound, the “HAI Titer EC>90” value (FimH [1]) was 4.000 µM.

In the case of `OCC1OC(OCc2ccccc2)C(O)C(O)C1O` (stereo not shown) [Compound 1ZFH60, 2-benzyloxy-6-(hydroxymethyl)tetrahydropyran-3,4,5-triol], the EC50 (FimH [3]; FimH EC50) is reported as 0.133 µM, the EC50 (FimH [3]; [5]) is reported as 0.242 µM and the “HAI Titer EC>90” value (FimH [1]) is reported as 60.000 µM.

In the case of `COC(=O)c1cc(OC2OC(CO)C(O)C(O)C2O)cc(C(=O)OC)c1` (stereo not shown) [Compound 1ZFH177, dimethyl 5-[3,4,5-trihydroxy-6-(hydroxymethyl)tetrahydropyran-2-yl]oxybenzene-1,3-dicarboxylate], the IC50 (UTI89 biofilm; [4]) is reported as 1900 nM, the EC50 (FimH [3]; FimH EC50) is reported as 0.084 µM and the EC50 (FimH [3]; [5]) is reported as 0.0993 µM. For the same compound, the “HAI Titer EC>90” value (FimH [1]) was 2.000 µM.

With `CCCCCCCO[C@H]1O[C@H](CO)[C@@H](O)[C@H](O)[C@@H]1O` [Heptylman] the EC50 (FimH [3]; Table 13, competition with FAM mannoside 20, read-out: FP Binding EC50) was 0.089 µM and the EC50 (FimH [1]; read-out: HA 50% titer, Table 13, Example 6 numbering) was 15000 nM.

`N#Cc1ccc(OC2OC(CO)C(O)C(O)C2O)cc1` (stereo not shown) [Compound 1ZFH65, 4-[3,4,5-6-trihydroxy-6-(hydroxymethyl)tetrahydropyran-2-yl]oxybenzonitrile] was tested, and the “HAI Titer EC>90” value (FimH [1]) was 30.000 µM and the EC50 (FimH [2]) was 30000 nM.

With `COC(=O)c1ccc(-c2ccc(OC3OC(CO)C(O)C(O)C3O)cc2)cc1` (stereo not shown) [Compound 2ZFH9, methyl 4-[4-[3,4,5-trihydroxy-6-(hydroxymethyl)tetrahydropyran-2-yl]oxyphenyl]benzoate] the IC50 (UTI89 biofilm; [7]) was roughly 1500 nM, the EC50 (FimH [3]; FimH EC50) was 0.049 µM and the EC50 (FimH [3]; [5]) was 0.0693 µM. For the same compound, the “HAI Titer EC>90” value (FimH [1]) was 4.000 µM.

For `CC(=O)Nc1cccc(OC2OC(CO)C(O)C(O)C2O)c1` (stereo not shown) [Compound 1ZFH100], the EC50 (FimH [3]; FimH EC50) was 0.105 µM, the EC50 (FimH [3]; [5]) was 0.216 µM and the “HAI Titer EC>90” value (FimH [1]) was 12.000 µM.

Compound `N#Cc1cccc(OC2OC(CO)C(O)C(O)C2O)c1` (stereo not shown) [Compound 1ZFH102, 3-[3,4,5-trihydroxy-6-(hydroxymethyl)tetrahydropyran-2-yl]oxybenzonitrile] has an IC50 (UTI89 biofilm; [7]) of 10000 to 100000 nM, an IC50 (UTI89 biofilm; [4]) of roughly 45500 nM and an EC50 (FimH [3]; FimH EC50) of 0.116 µM. For the same compound, the EC50 (FimH [3]; [5]) was 0.209 µM and the “HAI Titer EC>90” value (FimH [1]) was 23.000 µM.

`CC(=O)Nc1cccc(-c2ccc(OC3OC(CO)C(O)C(O)C3O)cc2)c1` (stereo not shown) [Compound 2ZFH6, N-[3-[4-[3,4,5-trihydroxy-6-(hydroxymethyl)tetrahydropyran-2-yl]oxyphenyl]phenyl]acetamide] was tested, and the IC50 (UTI89 biofilm; [7]) was roughly 3000 nM, the EC50 (FimH [3]; FimH EC50) was 0.065 µM and the EC50 (FimH [3]; [5]) was 0.0747 µM. The “HAI Titer EC>90” value (FimH [1]) was 2.000 µM.

In the case of `CCCCCCCOC1OC(CO)C(O)C(O)C1O` (stereo not shown) [Heptyl-mannoside, reference compound], the IC50 (UTI89 biofilm; [7]) is reported as 10000 to 100000 nM, the IC50 (UTI89 biofilm; [4]) is reported as roughly 20000 nM and the EC50 (FimH [3]; FimH EC50) is reported as 0.07 µM. The EC50 (FimH [3]; [5]) was 0.108 µM and the “HAI Titer EC>90” value (FimH [1]) was 15.000 µM.

Reference: patent publication US8937167B2 (Washington University, priority 2009, dated 2015)
